Laboratory results from ChEMBL document CHEMBL3638922, “2-amino-3-sulphonyl-tetrahydro-pyrazolo[1,5-A]pyrido-pyrimidine antagonists of serotonin 5-HT6 receptors, methods for the production and use thereof” (2013).
pIC50, pKi: −log10 of the molar value.

Target: 5-hydroxytryptamine receptor 6 (Homo sapiens, UniProt P50406)
Assay: Radioligand Binding Assay: The screening of the disclosed compounds for their potential ability to interact with serotonin 5-HT6 receptors was carried out b the method of radioligand binding.

5-hydroxytryptamine receptor 6, sequence (P50406 whole entry): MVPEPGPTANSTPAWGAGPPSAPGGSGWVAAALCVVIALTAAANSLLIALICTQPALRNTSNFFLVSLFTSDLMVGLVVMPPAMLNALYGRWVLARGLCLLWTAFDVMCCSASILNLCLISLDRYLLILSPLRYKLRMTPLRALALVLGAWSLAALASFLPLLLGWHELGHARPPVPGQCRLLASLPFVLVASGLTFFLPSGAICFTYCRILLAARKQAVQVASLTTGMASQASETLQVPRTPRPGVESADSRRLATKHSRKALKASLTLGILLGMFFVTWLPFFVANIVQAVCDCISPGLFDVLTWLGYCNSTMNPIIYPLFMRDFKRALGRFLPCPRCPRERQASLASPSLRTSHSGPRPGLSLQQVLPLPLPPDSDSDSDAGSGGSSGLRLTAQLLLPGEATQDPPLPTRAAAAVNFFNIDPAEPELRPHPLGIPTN

Row | SMILES | pIC50 | pKi
1 | CNc1nn2cc3c(nc2c1S(=O)(=O)c1ccccc1)CCN(C)C3 | 8.15 | 8.49
2 | CNc1nn2c3c(cnc2c1S(=O)(=O)c1ccccc1)CN(C)CC3 | 9.08 | 
